Data taken from DBAASP.
In brackets after ≈: the same amount, converted by molar mass. Blank lines part the entries; values can stand above or below the molecule they belong to.

What was measured:
Assay in all cases: ≥ marks a high value that may be exact or a test limit, other limits are often not marked, values filed in µg/mL are converted to µM
[1] = tested on: Escherichia coli ATCC 27325
[2] = tested on: Escherichia coli DH5alpha
[3] = tested on: Staphylococcus xylosus
[4] = tested on: Salmonella enterica subsp. enterica serovar Typhimurium ATCC 14028
[5] = tested on: Staphylococcus epidermidis ATCC 12228
[6] = tested on: Candida parapsilosis CGMCC 2.3989
[7] = tested on: Salmonella enterica subsp. enterica serovar Pullorum ATCC 7913
[8] = tested on: Staphylococcus aureus ATCC 25923
[9] = tested on: Staphylococcus aureus ATCC 43300
[10] = tested on: Salmonella enterica subsp. enterica serovar Typhimurium C77-31
[11] = tested on: Escherichia coli UB1005
[12] = tested on: Escherichia coli K88
[13] = tested on: Escherichia coli K99
[14] = tested on: Escherichia coli 078
[15] = tested on: Candida tropicalis CGMCC 2.1975
[16] = tested on: Pseudomonas aeruginosa ATCC 27853
[17] = tested on: Enterococcus faecalis ATCC 29212
[18] = tested on: Pseudomonas aeruginosa 253
[19] = tested on: Salmonella enterica serovar Typhimurium
[20] = tested on: Pseudomonas aeruginosa 919
[21] = tested on: Candida albicans
[22] = tested on: Staphylococcus epidermidis
[23] = tested on: Pseudomonas aeruginosa H103
[24] = tested on: Pseudomonas aeruginosa PAO1
[25] = tested on: Pseudomonas aeruginosa 910
[26] = tested on: Escherichia coli ATCC 25922
[27] = tested on: Streptococcus mutans ATCC 25175
[28] = tested on: Staphylococcus aureus ATCC 12600

SMILES: NCCCC[C@H](NC(=O)[C@H](CCCCN)NC(=O)[C@H](CCCCN)NC(=O)[C@H](Cc1ccccc1)NC(=O)[C@H](Cc1ccccc1)NC(=O)[C@H](Cc1ccccc1)NC(=O)[C@H](Cc1ccccc1)NC(=O)[C@H](Cc1ccccc1)NC(=O)[C@H](CCCCN)NC(=O)[C@H](CCCCN)NC(=O)[C@@H](N)CCCCN)C(=O)O [KKKFFFFFKKK]
MIC [2]: 16 µM (≈ 24.4 µg/mL) | MIC [3]: 4 µM (≈ 6.09 µg/mL)

SMILES: CC[C@H](C)[C@H](NC(=O)[C@H](CCCCN)NC(=O)[C@H](CCCN=C(N)N)NC(=O)[C@@H](N)CCCCN)C(=O)N[C@@H](CCCCN)C(=O)N[C@@H](CCCN=C(N)N)C(=O)N[C@@H](CCCCN)C(=O)O [KRKIKRK]
MIC [2]: ≥ 64 µM | MIC [3]: ≥ 64 µM

SMILES: CC[C@H](C)[C@H](N)C(=O)N[C@@H](CC(C)C)C(=O)N[C@@H](CCCCN)C(=O)N[C@@H](Cc1c[nH]c2ccccc12)C(=O)N[C@@H](CCCCN)C(=O)N[C@@H](CCCCN)C(=O)NCC(=O)N[C@@H](Cc1c[nH]c2ccccc12)C(=O)N[C@@H](Cc1c[nH]c2ccccc12)C(=O)N[C@@H](CCCCN)C(=O)N[C@@H](Cc1c[nH]c2ccccc12)C(=O)N[C@@H](Cc1ccccc1)C(=O)N[C@@H](CCCN=C(N)N)C(N)=O [ILKWKKGWWKWFR]
MIC [18]: 8 µM (≈ 14.9 µg/mL) | MIC [20]: 16 µM (≈ 29.8 µg/mL) | MIC [24]: 4 µM (≈ 7.45 µg/mL) | MIC [25]: 4 µM (≈ 7.45 µg/mL)

SMILES: CC[C@H](C)[C@H](NC(=O)[C@H](C)NC(=O)CNC(=O)[C@H](Cc1ccccc1)NC(=O)[C@H](CC(C)C)NC(=O)CN)C(=O)N[C@@H](C)C(=O)NCC(=O)N[C@@H](Cc1ccccc1)C(=O)N[C@H](C(=O)N[C@@H](CCCCN)C(=O)N[C@@H](CCCCN)C(=O)NCC(=O)N[C@@H](Cc1c[nH]c2ccccc12)C(=O)N[C@@H](CCCCN)C(=O)NCC(=O)N[C@@H](CCSC)C(=O)N[C@H](C(=O)N[C@@H](CCCCN)C(=O)NCC(N)=O)C(C)C)[C@@H](C)CC [GLFGAIAGFIKKGWKGMVKG]
MIC [26]: 7.6 µM (≈ 15.7 µg/mL) | MIC [27]: 1.9 µM (≈ 3.92 µg/mL) | MIC [28]: 3.8 µM (≈ 7.85 µg/mL) | MIC [16]: 7.6 µM (≈ 15.7 µg/mL)

SMILES: CC[C@H](C)[C@H](N)C(=O)N[C@@H](CC(C)C)C(=O)N[C@@H](CCCCN)C(=O)N[C@@H](Cc1c[nH]c2ccccc12)C(=O)N[C@@H](CCCCN)C(=O)N[C@@H](CCCN=C(N)N)C(=O)N[C@@H](CCCCN)C(=O)N[C@@H](Cc1c[nH]c2ccccc12)C(=O)N[C@@H](Cc1c[nH]c2ccccc12)C(=O)N[C@@H](CCCCN)C(=O)N[C@@H](Cc1c[nH]c2ccccc12)C(=O)N[C@@H](CCCN=C(N)N)C(=O)N[C@@H](CCCN=C(N)N)C(N)=O [ILKWKRKWWKWRR]
MIC [18]: 4 µM (≈ 7.88 µg/mL) | MIC [20]: 16 µM (≈ 31.5 µg/mL) | MIC [24]: 1 µM (≈ 1.97 µg/mL) | MIC [25]: 2 µM (≈ 3.94 µg/mL)

Other lines, results leading:

MIC [1]: 6 µM (≈ 14.7 µg/mL)
SMILES: CC(C)C[C@H](NC(=O)CNC(=O)[C@H](C)NC(=O)[C@H](CCCN=C(N)N)NC(=O)[C@H](CO)NC(=O)[C@H](CO)NC(=O)[C@H](CCCN=C(N)N)NC(=O)[C@@H](N)[C@@H](C)O)C(=O)N[C@@H](CCC(N)=O)C(=O)N[C@@H](Cc1c[nH]c2ccccc12)C(=O)N[C@@H](C)C(=O)N[C@H](C(=O)NCC(=O)N[C@@H](CCCN=C(N)N)C(=O)N[C@H](C(=O)N[C@@H](Cc1cnc[nH]1)C(=O)N[C@@H](CCCN=C(N)N)C(=O)N[C@@H](CC(C)C)C(=O)N[C@@H](CC(C)C)C(=O)N[C@@H](CCCN=C(N)N)C(=O)N[C@@H](CCCCN)C(=O)O)C(C)C)C(C)C [TRSSRAGLQWAVGRVHRLLRK]

MIC [4]: 4 µM (≈ 5.37 µg/mL) | MIC [5]: 2 µM (≈ 2.68 µg/mL) | MIC [6]: 16 µM (≈ 21.5 µg/mL) | MIC [7]: 4 µM (≈ 5.37 µg/mL) | MIC [8]: 4 µM (≈ 5.37 µg/mL) | MIC [9]: 2 µM (≈ 2.68 µg/mL) | MIC [10]: 4 µM (≈ 5.37 µg/mL) | MIC [11]: 2 µM (≈ 2.68 µg/mL) | MIC [12]: 2 µM (≈ 2.68 µg/mL) | MIC [13]: 2 µM (≈ 2.68 µg/mL) | MIC [14]: 4 µM (≈ 5.37 µg/mL) | MIC [15]: 4 µM (≈ 5.37 µg/mL) | MIC [16]: 16 µM (≈ 21.5 µg/mL)
SMILES: CC[C@H](C)[C@H](NC(=O)[C@H](CCCN=C(N)N)NC(=O)[C@H](C)NC(=O)[C@H](C)N)C(=O)N[C@H](C(=O)N[C@@H](CC(C)C)C(=O)N[C@@H](CCCN=C(N)N)C(=O)N[C@@H](C)C(=O)N[C@@H](CCCN=C(N)N)C(=O)N[C@@H](Cc1ccccc1)C(=O)N[C@@H](CCCN=C(N)N)C(N)=O)[C@@H](C)CC [AARIILRARFR]

MIC [17]: 1.3 µM (≈ 2 µg/mL) | MIC [18]: ≥ 32 µM | MIC [8]: 1.3 µM (≈ 2 µg/mL) | MIC [19]: 5.21 µM (≈ 7.99 µg/mL) | MIC [20]: ≥ 32 µM | MIC [21]: 5.21 µM (≈ 7.99 µg/mL) | MIC [22]: 0.325 µM (≈ 0.5 µg/mL) | MIC [23]: 5.21 µM (≈ 7.99 µg/mL) | MIC [11]: 1.3 µM (≈ 2 µg/mL) | MIC [24]: 16 µM (≈ 24.6 µg/mL) | MIC [25]: ≥ 32 µM
SMILES: CC[C@H](C)[C@H](NC(=O)[C@H](CCCN=C(N)N)NC(=O)[C@H](Cc1c[nH]c2ccccc12)NC(=O)[C@H](CC(C)C)NC(=O)[C@@H](N)CCCN=C(N)N)C(=O)N[C@H](C(=O)N[C@H](C(=O)N[C@H](C(=O)N[C@@H](CCCN=C(N)N)C(=O)N[C@H](C(=O)N[C@@H](C)C(=O)N[C@@H](CCCN=C(N)N)C(N)=O)C(C)C)[C@@H](C)CC)C(C)C)C(C)C [RLWRIVVIRVAR]

MIC [4]: 2 µM (≈ 2.77 µg/mL) | MIC [5]: 2 µM (≈ 2.77 µg/mL) | MIC [6]: 4 µM (≈ 5.54 µg/mL) | MIC [7]: 2 µM (≈ 2.77 µg/mL) | MIC [8]: 2 µM (≈ 2.77 µg/mL) | MIC [9]: 2 µM (≈ 2.77 µg/mL) | MIC [10]: 4 µM (≈ 5.54 µg/mL) | MIC [11]: 4 µM (≈ 5.54 µg/mL) | MIC [12]: 2 µM (≈ 2.77 µg/mL) | MIC [13]: 4 µM (≈ 5.54 µg/mL) | MIC [14]: 2 µM (≈ 2.77 µg/mL) | MIC [15]: 4 µM (≈ 5.54 µg/mL) | MIC [16]: 16 µM (≈ 22.1 µg/mL)
SMILES: CC[C@H](C)[C@H](NC(=O)[C@H](CCCN=C(N)N)NC(=O)[C@H](CC(C)C)NC(=O)[C@@H](NC(=O)[C@@H](NC(=O)[C@H](CCCN=C(N)N)NC(=O)[C@H](C)NC(=O)[C@H](C)N)[C@@H](C)CC)[C@@H](C)CC)C(=O)N[C@@H](CCCN=C(N)N)C(=O)N[C@@H](Cc1ccccc1)C(=O)N[C@@H](CCCN=C(N)N)C(N)=O [AARIILRIRFR]

MIC [2]: 16 µM (≈ 28.9 µg/mL) | MIC [3]: 8 µM (≈ 14.5 µg/mL)
SMILES: CC[C@H](C)[C@H](NC(=O)[C@H](CC(C)C)NC(=O)[C@H](CCCCN)NC(=O)[C@H](CCCN=C(N)N)NC(=O)[C@@H](N)CCCCN)C(=O)N[C@@H](CC(C)C)C(=O)N[C@@H](CCCCN)C(=O)N[C@@H](CCCN=C(N)N)C(=O)N[C@H](C(=O)N[C@@H](CC(C)C)C(=O)N[C@H](C(=O)N[C@@H](CCCCN)C(=O)N[C@@H](CCCN=C(N)N)C(=O)N[C@@H](CCCCN)C(=O)O)[C@@H](C)CC)[C@@H](C)CC [KRKLILKRILIKRK]

MIC [2]: 8 µM (≈ 12.2 µg/mL) | MIC [3]: 1 µM (≈ 1.52 µg/mL)
SMILES: CC(C)C[C@H](NC(=O)[C@H](CC(C)C)NC(=O)[C@H](CC(C)C)NC(=O)[C@H](CC(C)C)NC(=O)[C@H](CC(C)C)NC(=O)[C@H](CCCN=C(N)N)NC(=O)[C@H](CCCN=C(N)N)NC(=O)[C@@H](N)CCCN=C(N)N)C(=O)N[C@@H](CCCN=C(N)N)C(=O)N[C@@H](CCCN=C(N)N)C(=O)N[C@@H](CCCN=C(N)N)C(=O)O [RRRLLLLLRRR]
